Source: US7838565B2, “Use of cyclohexenone derivatives in the manufacture of a medicament for treating diabetic complications” (Meiji Dairies Corporation, priority 2001, dated 2010)
“And” between values parts separate entries of the source, which are not always exact repeats. Identical values can stand only once.

Legend:
Format in all cases: in vivo
[1] = test system: model rat of diabetes (streptozotocin); experiment: Test 1: neural stimulus conduction rate (sciatic nerve) in STZ diabetes model rat; conditions: STZ (65 mg/kg i.p.) diabetes rat, 8 mg/kg daily i.p. for 8 weeks, mean ± S.E.
Protocol: (§1) To a rat, 65 mg/kg of streptozotocin (STZ) was administered intraperitoneally to prepare a model rat of diabetes. After intraperitoneal administration of Compound 4 obtained in Preparation Example 4 at a daily dose of 8 mg/kg for 8 weeks from two days after administration of STZ, the conduction rate of stimulus to sciatic nerve was measured by inserting a needle electrode for potential measurement into the vicinity of the right sciatic nerve, right Achilles tendon, and right plantar. Measurement was conducted three times and the mean of them was designated as the nerve stimulus conduction rate of the rat. Each group consisted of 10 to 12 rats.

[2] = test system: model rat of diabetes (streptozotocin); experiment: Test 2: maximum quantity excreted by single urination, metabolic cage, STZ diabetes model rat; conditions: 8 mg/kg daily i.p. for 8 weeks, recorded for 24 hours in metabolic cage, mean ± S.E.
Protocol: as §1
In a similar manner to Test 1, Compound 4 obtained in Preparation Example 4 was administered intraperitoneally to a rat at a daily dose of 8 mg/kg day for 8 weeks from two days after administration of STZ. Its urination pattern such as urination frequency and urination amount was then recorded for 24 hours at 2.5-min intervals by using a metabolic cage.

[3] = test system: model rat of diabetes (streptozotocin); experiment: Test 3: bladder capacity and urination efficiency by intravesical pressure measurement under anesthesia, STZ diabetes model rat; conditions: 8 mg/kg daily i.p. for 8 weeks, mean ± S.E.
Protocol: as §1
In a similar manner to Test 1, Compound 4 obtained in Preparation Example 4 was administered intraperitoneally to a rat at a daily dose of 8 mg/kg for 8 weeks from two days after administration of STZ. The intravesical pressure of the rat was then measured under anesthesia, whereby bladder capacity and urination efficiency were determined.
The urination efficiency was determined from an excreted quantity/bladder capacity ratio.
Urination efficiency (%)=100×excreted quantity/bladder capacity

CC1=C(CCCCCCCCCCCCCCCO)C(C)(C)CCC1=O [Compound 4, 3-(15-Hydroxypentadecyl)-2,4,4-trimethyl-2-cyclohexen1-one]
Conduction rate of stimulus to nerve [1]: 45.5 m/sec and 45.5 ± 1.2 m/sec | Maximum amount excreted by single urination [2]: 3.71 ± 0.26 mL | Bladder capacity (urination-inducing) [3]: 0.54 ± 0.07 mL | Urination efficiency (100×excreted quantity/bladder capacity) [3]: 75.0±6.1%
